Values of other authors, collected in US12116550B2, “Process of making a liquid conditioning composition” (The Procter & Gamble Company, priority 2020, dated 2024).

conditions: nonionic surfactants of Table A, value reported for the trade product

| Substance | Reported HLB |
| --- | --- |
| Sorbitan isostearate [Span 120] | 4.7 |
| Sorbitan monopalmitate [Span 40] | 6.7 |
| Sorbitan monostearate [Span 60] | 4.7 |
| Sorbitan monooleate [Span 80] | 4.3 |
